Patent publication US10213482B2, “Methods of treating chronic inflammatory diseases” (Centre National de la Recherche Scientifique, priority 2014, dated 2019)
Square brackets hold non-standard residues; d marks the D form. Ends that are not written are not given here. Peptide text beside a SMILES is read from it. Met(O) = CS(=O)CC[C@H](N)C(=O)O; pS = N[C@@H](COP(=O)(O)O)C(=O)O

Tests used:
[1] = Stability of the peptides at 37° C. in 10% mannitol (HPLC peak area); assay type: physicochemical
Method: The stability of the peptide SEQ ID NO: 1 in which the serine at position 10 is phosphorylated and the methionine at position 4 is oxydized (P140(MO)), and the peptide SEQ ID NO: 1 in which the serine at position 10 is phosphorylated (P140) was measured at 37° C., in a solution of 10% (v/v) mannitol. For each peptide, 3 concentrations have been tested: 200, 100 and 50 μg/mL.
At the indicated time, the integrity of P140 and P140(MO) peptides was measured in saline by high-performance liquid chromatography from the area of the peak corresponding to the intact peptide.
Stability is measured by using the HPLC peak surface.

Balb/c mice = test: 15-day ovalbumin-induced airway hypereosinophilia model, BAL cell counts; assay type: in vivo, mouse; conditions: i.n. or i.v., control mice challenged with saline; no pro-inflammatory effect
Method: The anti-inflammatory effect of the P140 phosphopeptide was evaluated when administered locally (intranasally) or systemically (intravenously) in a 15-day model of hypereosinophilic airway inflammation in mice.
The P140 phosphopeptide was solubilized in sterile water (Braun) and 10× concentrate sterile saline was added to adjust osmolarity to 300 mosm. Osmolarity was controlled with a micro osmometer (Loser, type 15) and validated (302 mosm).
The P140 phosphopeptide was used in vivo at the dose of 4 mg/kg by intranasal (i.n.) and intravenous (i.v.) routes. Control animals received equivalent volumes (1 ml/kg for i.n. and 2 ml/kg for i.v.) of saline (Table 6).
Nine-week-old male Balb/c mice were sensitized by intraperitoneal (i.p.) injections of a mixture containing 50 μg OVA (Sigma-Aldrich) and 2 mg alum (Sigma-Aldrich) in 0.1 ml saline. Mice were challenged by i.n. administration of 25 μl of OVA on day 5, then 25 μl of OVA and/or saline on day 12, 13 and 14. […]
BAL was performed twenty-four hours after LPS challenge as described (Daubeuf, F. and Frossard, N. 2012. Performing Bronchoalveolar Lavage in the Mouse. Curr Protoc Mouse Biol 2:167-175). […] The cell pellet was suspended in 500 μl of 0.9% NaCl and used for total cell counts evaluated on a Muse® Cell Analyser. Differential cell counts were assessed by flow cytometry (LSRII® cytometer, BD Bioscience). […]

Recombinant bovine HSC70 = target: T1, Recombinant bovine HSC70 (Bos taurus, UniProt P19120); test: BIAcore binding of P140 peptides to HSC70
T1 construct: purchased Stressgen
Method: BIAcore 3000 system (Biacore AB) was used to evaluate the binding of P140 peptides to HSC70 protein (Page et al., 2009, and 2011). Sensor chip CMS, surfactant P20, amine coupling kit containing N-hydroxysuccinimide (NHS) and N-ethyl-N′-dimethylaminopropyl carbodiimide (EDC), 2-(2-pyridinyldithio)ethaneamine (PDEA) and ethanolamine were from Biacore AB. Biosensor assays were performed with HBS-EP buffer as running buffer (10 mM HEPES, 150 mM NaCl, 3 mM EDTA, 0.005% surfactant P20, pH 7.4). The compounds were diluted in the running buffer. The sensor chip surface was regenerated after each experiment by injecting 10 μL of 10 mM HCl. Recombinant bovine HSC70 (Stressgen) was immobilized on flow cells of a CMS sensor chip through its thiol groups using 35 μL PDEA in 50 mM borate buffer, pH 8.3 on the NHS/EDC-activated matrix. Then, 35 μL of HSC70 (100 μg/mL in formate buffer, pH 4.3) were injected until a response of 13,000 response units (RU) corresponding to 13 ng/mm^2 of HSC70 was immobilized. Twenty μL of a 50 mM cysteine/1 M NaCl solution was used to saturate unoccupied sites on the chip. The direct binding measurement of P140 peptides to HSC70 was carried out at 25° C. with a constant flow rate of 20 μL/min. […] The kinetic parameters were calculated using the BIAeval 3.1 software on a personal computer. […]

MRL/lpr mice [2] = test: Proteinuria analysis in MRL/lpr mice (Albustix); assay type: in vivo, mouse; conditions: compared to the untreated mice
Method: Proteinuria of the above mice was measured in fresh urine using Albustix (Bayer Diagnostics) and was semi-quantitatively estimated according to a […] recommended by the manufacturer (no proteinuria=0; traces=1; 1+=2; 2+=3; 3+=4; 4+=5).
Statistical tests were performed using GraphPad Prism version 5.0. The two-way ANOVA test was used to analyze statistical significance of proteinuria differences between control and peptide-treated groups of mice. Survival of control and P140 analogue-treated female MRL/lpr mice was analyzed by the Kaplan-Meier method, and the significance of differences was determined by the log-rank test. For the other variables, statistical significance was assessed using the Student's t-test. p values less than 0.05 were considered significant.

MRL/lpr mice [3] = test: Cellularity analysis of peripheral blood in MRL/lpr mice; assay type: in vivo, mouse; conditions: 100 μg/100 μL, 5 days after unique injection
Method: MRL/lpr mice were injected with 100 μg/100 μL of P140 or P140(MO) and cellularity (preipheral blood) was studied 5 days after this unique injection. The count includes all the leucocytes. In view of the low number of tested mice, a non parametric statistical test has been realised Mann-Whitney).

mice = conditions: Monneaux et al., 2003; cited from earlier work

T1 sequence (P19120 whole entry): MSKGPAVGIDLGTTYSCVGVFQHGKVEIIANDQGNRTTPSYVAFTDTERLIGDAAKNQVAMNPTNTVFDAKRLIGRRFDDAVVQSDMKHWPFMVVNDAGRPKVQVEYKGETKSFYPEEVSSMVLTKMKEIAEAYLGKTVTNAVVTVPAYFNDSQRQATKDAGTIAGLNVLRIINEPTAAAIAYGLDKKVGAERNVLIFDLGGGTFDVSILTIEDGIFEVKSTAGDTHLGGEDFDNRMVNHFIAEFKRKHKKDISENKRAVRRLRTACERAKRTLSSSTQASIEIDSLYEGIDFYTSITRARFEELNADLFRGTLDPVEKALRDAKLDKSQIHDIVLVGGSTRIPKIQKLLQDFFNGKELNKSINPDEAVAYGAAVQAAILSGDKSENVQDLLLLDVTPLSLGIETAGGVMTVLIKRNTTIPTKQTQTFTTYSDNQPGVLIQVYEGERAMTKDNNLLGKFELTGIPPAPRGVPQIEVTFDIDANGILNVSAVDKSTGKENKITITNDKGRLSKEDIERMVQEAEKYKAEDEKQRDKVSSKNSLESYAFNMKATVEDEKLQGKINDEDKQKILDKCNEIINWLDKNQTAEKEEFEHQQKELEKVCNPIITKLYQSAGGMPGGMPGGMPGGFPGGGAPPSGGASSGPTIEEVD

Compound	Stability (%) Linear equation: coefficient of x (days) ([1]; 50 μg/mL)	Stability (%) Linear equation: constant term ([1]; 50 μg/mL)	Stability (%) Linear equation: coefficient of x (days) ([1]; 100 μg/mL)	Stability (%) Linear equation: constant term ([1]; 100 μg/mL)	Stability (%) Linear equation: coefficient of x (days) ([1]; 200 μg/mL)	Stability (%) Linear equation: constant term ([1]; 200 μg/mL)	Number of cells recovered in BAL fluid as compared to vehicle (Balb/c mice)	Affinity for HSC70 protein, comparison of oxidized and non-oxidized peptide (Recombinant bovine HSC70)	Proteinuria score over time (MRL/lpr mice [2])	Peripheral hypercellularity (leucocytes in blood) (MRL/lpr mice [3])	Protection against disease development (mice)
CC[C@H](C)[C@H](NC(=O)[C@H](Cc1ccccc1)NC(=O)[C@H](C)NC(=O)[C@H](Cc1ccc(O)cc1)NC(=O)CNC(=O)[C@H](CCCNC(=N)N)NC(=O)[C@@H]1CCCN1C(=O)[C@H](CCCCN)NC(=O)CNC(=O)[C@H](COP(=O)(O)O)NC(=O)[C@H](CCCNC(=N)N)NC(=O)[C@H](CCCCN)NC(=O)[C@H](CO)NC(=O)[C@H](Cc1ccc(O)cc1)NC(=O)[C@@H](NC(=O)[C@H](CCSC)NC(=O)[C@H](Cc1c[nH]cn1)NC(=O)[C@@H](NC(=O)[C@@H](N)CCCNC(=N)N)[C@@H](C)CC)C(C)C)C(=O)N[C@@H](CCC(=O)O)C(=O)N[C@@H](Cc1ccc(O)cc1)C(=O)O [Compound P140] (H-RIHMVYSKR[pS]GKPRGYAFIEY-OH)	y = −0.099x +	98.299	y = −0.0612x +	99.25	y = −0.0238x +	99.535	little effect per se	–	–	–	–
CC[C@H](C)[C@H](NC(=O)[C@H](Cc1ccccc1)NC(=O)[C@H](C)NC(=O)[C@H](Cc1ccc(O)cc1)NC(=O)CNC(=O)[C@H](CCCNC(=N)N)NC(=O)[C@@H]1CCCN1C(=O)[C@H](CCCCN)NC(=O)CNC(=O)[C@H](COP(=O)(O)O)NC(=O)[C@H](CCCNC(=N)N)NC(=O)[C@H](CCCCN)NC(=O)[C@H](CO)NC(=O)[C@H](Cc1ccc(O)cc1)NC(=O)[C@@H](NC(=O)[C@H](CC[S+](C)[O-])NC(=O)[C@H](Cc1c[nH]cn1)NC(=O)[C@@H](NC(=O)[C@@H](N)CCCNC(=N)N)[C@@H](C)CC)C(C)C)C(=O)N[C@@H](CCC(=O)O)C(=O)N[C@@H](Cc1ccc(O)cc1)C(=O)O (stereo partly shown) [P140(MO), RIHM(O)VYSKRS(PO3H2)GKPRGYAFIEY] (H-RIH[Met(O)]VYSKR[pS]GKPRGYAFIEY-OH)	y = −0.0064x +	99.677	y = −0.0064x +	100.11	–	y = 100	–	not statistically different	less important and appears lately	decrease peripheral hypercellularity	–
non-phosphorylated peptide: non-phosphorylated form of P140, not protective against disease development in mice (RIHMVYSKRSGKPRGYAFIEY; not fully specified; UniProt P08621 131-151, looked up, fragment)	–	–	–	–	–	–	–	–	–	–	not protective
